The series has as its system HCV IRES. Description: sf-SHAPE structure mapping of the HCV IRES in the presence of miRNA. Format: binding, Hepatitis C virus. From the text:
First, the intricacies (and cost) introduced by using multiple fluorophores have been eliminated by using a single fluorophore-labelled primer and multiple capillaries, rather than using multiple fluorophores sets in each capillary. We have therefore named this technique, single fluorophore SHAPE (sf-SHAPE). sf-SHAPE is a fragment analysis method that uses an internal standard to allow data from one capillary to be directly compared to data from another, with high precision. Commercial software (Peak Scanner, ABI), as well as custom-designed software (CAFA)11, which assign fragment lengths to peaks using an internal standard and integrates each peak area, are freely available.
We have designed a program entitled Fast Analysis of SHAPE Traces (FAST), which then takes the output from Peak Scanner and automatically (a) corrects for signal decay; (b) corrects for differences in signal strength among samples; and (c) assigns the determined SHAPE reactivity to the appropriate nucleotide, using a ddNTP sequencing ladder and the local southern method. […] FAST is able to generate SHAPE reactivity data from electrophoretic traces in as little as 5-10 minutes, as opposed to hours, with high experimental reproducibility (R2=0.93).
We next explored the effect of miR-122 on the HCV IRES structure. In this experiment, the HCV IRES structure was determined in the presence of miR-122 as well as a control miRNA, miR-124. The IRES structure was also determined in the presence of a mutant miR-122, in which the seed region of miR-122 was retained (NT 1-9), while the remainder of the miRNA was replaced by the end of miR-124 [miR-122(seed) with miR-124(tail)].
SHAPE performed as previously described by Mortimer & Weeks (2009) Nature protocols 4, 1413-1421; and Wilkinson et al. (2006) Nature protocols 1, 1610-1616 except: RNA purification after acylation and removal of miRNA before RT by RNA C&C (Zymoresearch); DNA purification by size exclusion (Sephadex G-50 resin); 1 pmol RNA used in sequences reactions; fragment analysis protocol (GeneScan/ROX 500 standard/50 cm capillary/POP6/voltage 15 kV/T=60° C./injection time=15 s (3100 ABI); 6-FAM labelled primers), and PeakScanner/FAST analysis. IRES folding29, (100 mM NaCl; 2.5 mM MgCl), alamar blue assay and qRT-PCR were performed as previously described30. Luciferase assay performed as described30, except co-transfection (HCV/LNA) was by lipofectamine 2000 (3.5×10^5 huh 7.5 cells/well), with translation measured at 4 hours. LNAs purchased from Exiqon (Scramble-miR/hsa-miR-122 kd2). Sequence logo: RNA graphics were drawn using RNA Viz. P-values (two-tailed unpaired t-test) calculated by InStat 3 (Graphpad).

“Also recorded” adds a separate entry of the source.

Turning to “miR-122: liver-expressed miRNA, UGGAGUGUGA CAAUGGUGUUUG (UGGAGUGUGACAAUGGUGUUUG)”, the “effect on IRES structure (SHAPE reactivity)” value (HCV IRES with versus without miRNA) was “induced a number of changes”. Also, the “binding at NTs 32-37” value (outside the complementary seed region) is reported as “results in binding”. Besides, the “binding to the S2 target of the IRES (NT 38-42)” value (seed site) was “bound”. Further, the “flexibility of the S2 target site” value (upon addition of miRNA, HCV nucleotides 32-42) was “significant reduction in flexibility”. The “flexibility / reactivity of domain IV (AUG start site)” value (upon addition of miRNA, nucleotides 335, 336, 351) is listed as “becomes more flexible; also recorded: significantly increased flexibility”.

The record behind these values is patent US20130288917A1, “Rapid High Resolution, High Throughput RNA Structure, RNA-Macromolecular Interaction, and RNA-Small Molecule Interaction Mapping” (The Board of Trustees of the Leland Stanford Junior …, priority 2010, published 2013).
